Test results: patent publication US11331364B2, “Use for JNK inhibitor molecules for treatment of various diseases” (Xigen Inflammation Ltd., priority 2014, dated 2022)
Square brackets hold non-standard residues; d marks the D form. Peptide text beside a SMILES is read from it.

Experiments:
[1] = test system: K5.STAT3C mouse model of psoriasis; assay: K5.STAT3C mouse model of psoriasis, tape stripping, acanthosis; format: in vivo; settings: 5 mg/kg IP QD D0-D5
Protocol: To this end, two independent experiments are performed, each with at least 15 mice per experiment (5 mice per group). In each experiment, BK5.STAT3C heterozygous transgenic mice (Tg(KRT5-Stat3*A661C*N663C)1Jdg, henceforth referred to as K5.STAT3C mice) were randomly allocated to the following experimental groups 1 and 2, and wild-type littermates were allocated to group 3:
On Day 0, psoriasis is induced by tape striping (12-18 times) the back of the mouse after depilation. To this end, mice were anaesthetized using a Ketamine/Xylazine cocktail (100 mg/kg and 10 mg/kg respectively) intraperitoneally, shaved, depilated and skin injury was applied by 15 gentle strokes of tape stripping. Mice were treated with either vehicle (saline) or XG-104 right before anaesthesia on day 0 and once a day thereafter for 5 days. […]
Animals are weighed once on day 0. […] After termination of the study at day 5, approximately 1 cm^2 skin biopsy (lesions) is collected on the back of each mouse, embedded with Optimal Cutting Temperature (OCT)-containing moulds, frozen on dry ice, sectioned in 6 μm slices using a cryotome and stained with H&E. Epidermal thickness (acanthosis) is histologically measured blinded by two independent experimenters. One slide per mouse and 10 different zones of the sections are measured.

[2] = test system: Imiquimod-induced psoriasis in mice; assay: Imiquimod-induced psoriasis, ear histopathology; format: in vivo, mouse
Protocol: Female BALB/cAnNCrl mice (Charles River, age 8 to 10 weeks at study start) have been assigned to the following groups (treatment schedule):
In this experiment, two positive controls have been utilized. Firstly, Prednisolone at 10 mg/kg (vehicle: 1% Hydroxyethylcellulose, 0.25% Polysorbate 80, and 0.05% Antifoam in purified water) has been dosed daily and orally (group “Prednisolone”). Secondly, Dexamethasone has been administered at 0.5 mg/kg (vehicle: sterile 0.9% NaCl) on days 1, 4 and 7 via intravenous route.
On day 8, animals have been sacrificed and the tissue (ear) has been fixed in 10% neutral buffered formalin. For histopathology hematoxylin-and-eosin-stained sections (cross cut) have been prepared and microscopic evaluation on the collected tissues from all animals has been performed. Methods and end-points for histopathology were similarly described in the van der Fits (2009) paper in that inflammation, epidermal hyperplasia, epidermal hyperkeratosis (rather than parakeratosis) were observed and recorded for severity grade, whereby the respective methodology from Van der Fits et al. (The Journal of Immunology 2009, 182, P. 5836-5845) is hereby incorporated by reference. Histopathology grading scores were excluded for either skin or ear in animals with secondary inflammatory processes (full thickness epidermal ulcers). Scores were averaged by group and standard deviation and statistical significance were calculated. […] Formalin-fixed, paraffin embedded skin from the dorsal surface of the mouse (BALB/c) was stained with hematoxylin and eosin (H&E) stain and assessed microscopically. An important difference from the above reference and to describe in more detail the observations of the present study: Hyperkeratosis can be defined specifically as orthokeratotic (no retained nuclei) or parakeratotic (retained nuclei). Either can occur normally in various anatomical locations and depending on species; however, both conditions are well defined in particular disease states. The van der Fits paper describes their Imiquimod (IMQ)-induced psoriasis model as causing parakeratotic hyperkeratosis similar to what is seen in the human condition, and that was a defined end-point for this study. However, the Danilenko et al. (Veterinary Pathology 2008 45:563) has shown that many rodent psoriasis models have orthokeratotic hyperkeratosis. […] The more general term ‘hyperkeratosis’ was used for grading end-points and describe in the text what type was seen (primarily orthokeratotic).
Microscopic Histopathology end-points were graded as such: […]

hJNK3 = hJNK3 (Homo sapiens, UniProt P53779); assay: hJNK3 | IC50; settings: read-out: hJNK3 | IC50
hJNK3, sequence (P53779 whole entry, looked up): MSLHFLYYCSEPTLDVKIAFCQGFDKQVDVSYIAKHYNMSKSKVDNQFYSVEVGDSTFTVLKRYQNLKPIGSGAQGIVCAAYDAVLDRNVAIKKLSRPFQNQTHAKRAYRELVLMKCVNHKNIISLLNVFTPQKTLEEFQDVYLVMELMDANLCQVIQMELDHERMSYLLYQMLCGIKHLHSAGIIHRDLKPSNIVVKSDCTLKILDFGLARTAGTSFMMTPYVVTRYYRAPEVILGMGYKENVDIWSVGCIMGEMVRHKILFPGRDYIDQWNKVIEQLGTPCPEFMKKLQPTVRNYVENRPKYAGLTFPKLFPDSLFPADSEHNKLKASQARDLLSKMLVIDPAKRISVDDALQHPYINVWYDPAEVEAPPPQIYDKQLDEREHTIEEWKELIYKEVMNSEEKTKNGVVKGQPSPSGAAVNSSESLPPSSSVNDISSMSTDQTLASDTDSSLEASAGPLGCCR

SMILES: CC(C)C[C@H](NC(=O)[C@H](CC(N)=O)NC(=O)[C@H](CC(C)C)NC(=O)[C@@H](NC(=O)[C@@H](C)NC(=O)[C@@H]1CCCN1C(=O)[C@H](CCCNC(=N)N)NC(=O)[C@@H](CCCCN)NC(=O)[C@@H]1CCCN1C(=O)[C@H](CCCNC(=N)N)NC(=O)[C@@H](CCCNC(=N)N)NC(=O)[C@H](CCCNC(=N)N)NC(=O)[C@H](CCCNC(=N)N)NC(=O)[C@H](CCC(N)=O)NC(=O)[C@@H](CCCNC(=N)N)NC(=O)[C@H](CCCNC(=N)N)NC(=O)[C@H](CCCCN)NC(=O)[C@H](CCCCN)NC(=O)[C@H](N)CCCNC(=N)N)[C@@H](C)O)C(=O)N[C@H](Cc1ccccc1)C(N)=O [SEQ ID NO: 172, rKKRrQRRrRPkRPaTLNLf] (H-[dR]KKR[dR]QRR[dR]RP[dK]RP[dA]TLNL[dF]-NH2; N-terminus assumed)
- acanthosis (epidermal thickness) [1]: significantly reduced the acanthosis
- parakeratosis [1]: absence of any parakeratosis
- epidermal hyperkeratosis of the ear (average grades) ([2]; 0.02 mg/kg IV days 1, 4, 7): minimally decreased average grades
- epidermal hyperplasia of the ear ([2]; 0.2 mg/kg IV days 1, 4, 7): Minimal decreases in epidermal hyperplasia of the ear
- inflammation of the ear (average grade) vs vehicle-IMQ ([2]; 0.2 mg/kg IV days 1, 4, 7): decreased inflammation of the ear
- inflammation of the ear (average grade) vs vehicle-IMQ ([2]; 0.2 mg/kg IV days 1, 4, 7, listed as XG-104): significant differences from the vehicle control group
- inflammation of the ear (average grade) vs vehicle-IMQ ([2]; 2 mg/kg IV days 1, 4, 7): decreased inflammation of the ear
- IC50 (hJNK3): 0.102 µM
